Values joined by “and” are separate entries in the source; they are usually repeats but may differ in a detail not shown here. Equal values may be shown once. Toxic doses and inconclusive results are not listed.
Test system: BDF1 mice, B16 melanoma ip, median survival T/C
Assay: NCI In Vivo Anticancer Drug Screen. Data for tumor model B16 Melanoma (intraperitoneal) in B6D2F1 (BDF1) mice
Conditions: endpoint: median survival time, higher = longer survival
Outline: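 Values are ratios of treated (T) to vehicle-control (C) measurements of survival or tumor size in tumor-bearing mice.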

[1] = dose: 6.25 mg/kg/injection, schedule: Q01DX009 (ip), vehicle: saline with Tween-80
[2] = dose: 100.0 mg/kg/injection, schedule: Q01DX009 (ip), vehicle: saline with Tween-80
[3] = dose: 200.0 mg/kg/injection, schedule: Q01DX009 (ip), vehicle: saline with Tween-80
[4] = dose: 100.0 mg/kg/injection, schedule: Q01DX009 (ip), vehicle: Klucel (hydroxypropylcellulose) (HPC)
[5] = dose: 200.0 mg/kg/injection, schedule: Q01DX009 (ip), vehicle: Klucel (hydroxypropylcellulose) (HPC)
[6] = dose: 50.0 mg/kg/injection, schedule: Q01DX009 (ip), vehicle: saline with Tween-80
[7] = dose: 25.0 mg/kg/injection, schedule: Q01DX009 (ip), vehicle: Klucel (hydroxypropylcellulose) (HPC)
[8] = dose: 50.0 mg/kg/injection, schedule: Q01DX009 (ip), vehicle: Klucel (hydroxypropylcellulose) (HPC)
[9] = dose: 3.13 mg/kg/injection, schedule: Q01DX009 (ip), vehicle: saline
[10] = dose: 6.25 mg/kg/injection, schedule: Q01DX009 (ip), vehicle: saline
[11] = dose: 12.5 mg/kg/injection, schedule: Q01DX009 (ip), vehicle: saline
[12] = dose: 100.0 mg/kg/injection, schedule: Q04DX003 (ip), vehicle: saline
[13] = dose: 25.0 mg/kg/injection, schedule: Q01DX009 (ip), vehicle: saline

SMILES: C[CH2][Pb]([CH2]C)([CH2]C)[O]C(=O)COc1ccccc1
- T/C (dose: 1.5 mg/kg/injection, schedule: Q01DX009 (ip), vehicle: saline with Tween-80): 104 % of control
- T/C (dose: 3.0 mg/kg/injection, schedule: Q01DX009 (ip), vehicle: saline with Tween-80): 107 % of control
- T/C [1]: 108 % of control

SMILES: C1=Cc2ccccc2/C1=C/c1ccc(/C=C2\C=Cc3ccccc32)cc1
- T/C (dose: 100.0 mg/kg/injection, schedule: Q04DX003 (ip), vehicle: Klucel (hydroxypropylcellulose) (HPC)): 98 % of control
- T/C (dose: 200.0 mg/kg/injection, schedule: Q04DX003 (ip), vehicle: Klucel (hydroxypropylcellulose) (HPC)): 102 % of control
- T/C (dose: 400.0 mg/kg/injection, schedule: Q04DX003 (ip), vehicle: Klucel (hydroxypropylcellulose) (HPC)): 92 % of control

SMILES: CC1=C(/C=C/C(C)=C/C=C/C(C)=C/CO)C(C)(C)CCC1
- T/C (dose: 4.0 mg/kg/injection, schedule: Q01DX009 (ip), vehicle: saline with Tween-80): 90 % of control and 100 % of control
- T/C (dose: 8.0 mg/kg/injection, schedule: Q01DX009 (ip), vehicle: saline with Tween-80): 99 % of control and 101 % of control
- T/C (dose: 16.0 mg/kg/injection, schedule: Q01DX009 (ip), vehicle: saline with Tween-80): 97 % of control and 103 % of control
- T/C (dose: 32.0 mg/kg/injection, schedule: Q01DX009 (ip), vehicle: saline with Tween-80): 90 % of control and 105 % of control

SMILES: Cc1c(Cl)ccc2c(C(O)CBr)cc(-c3ccccc3)nc12 (centres undefined)
- T/C [2]: 91 % of control
- T/C [3]: 87 % of control

SMILES: Cc1c(C)c2c(c(C)c1O)CCC(C)(CCCC(C)CCCC(C)CCCC(C)C)O2 (centres undefined)
- T/C [2]: 95 % of control
- T/C [3]: 90 % of control

SMILES: COC1=C2CC(C)CC(OC)C(O)C(C)/C=C(\C)C(OC(N)=O)C(OC)/C=C\C=C(/C)C(=O)NC(=C(/C=N/N3CCCCC3)C1=O)C2=O (centres undefined)
- T/C (dose: 12.5 mg/kg/injection, schedule: Q01DX005 (ip), vehicle: other): 101 % of control
- T/C (dose: 25.0 mg/kg/injection, schedule: Q01DX005 (ip), vehicle: other): 98 % of control
- T/C (dose: 50.0 mg/kg/injection, schedule: Q01DX005 (ip), vehicle: other): 97 % of control
- T/C (dose: 100.0 mg/kg/injection, schedule: Q01DX005 (ip), vehicle: other): 88 % of control
- T/C (dose: 200.0 mg/kg/injection, schedule: Q01DX005 (ip), vehicle: other): 97 % of control

SMILES: CC[P+](c1ccccc1)(c1ccccc1)c1ccccc1
- T/C (dose: 1.25 mg/kg/injection, schedule: Q04DX003 (ip), vehicle: saline): 97 % of control
- T/C (dose: 2.5 mg/kg/injection, schedule: Q04DX003 (ip), vehicle: saline): 93 % of control
- T/C (dose: 5.0 mg/kg/injection, schedule: Q04DX003 (ip), vehicle: saline): 95 % of control

SMILES: CCC(C(N)=O)C1=CCCCC1 (centres undefined)
- T/C [4]: 105 % of control
- T/C [5]: 101 % of control

SMILES: COc1cccc2c1C(=O)c1c(O)c3c(c(O)c1C2=O)C[C@@](O)(/C(C)=N/NC(=O)c1ccccc1)C[C@@H]3OC1CC(N)C(O)C(C)O1 (some centres undefined)
- T/C (dose: 0.5 mg/kg/injection, schedule: Q01DX009 (ip), vehicle: water): 118 % of control
- T/C (dose: 0.75 mg/kg/injection, schedule: Q01DX009 (ip), vehicle: saline): 156 % of control
- T/C (dose: 1.5 mg/kg/injection, schedule: Q01DX009 (ip), vehicle: saline): 156 % of control and 167 % of control and 202 % of control
- T/C (dose: 2.0 mg/kg/injection, schedule: Q01DX001 (ip), vehicle: water): 158 % of control and 165 % of control
- T/C (dose: 2.0 mg/kg/injection, schedule: Q01DX009 (ip), vehicle: water): 181 % of control
- T/C (dose: 3.0 mg/kg/injection, schedule: Q01DX009 (ip), vehicle: saline): 186 % of control and 200 % of control and 226 % of control
- T/C (dose: 3.0 mg/kg/injection, schedule: Q04DX003 (ip), vehicle: saline): 165 % of control and 172 % of control
- T/C (dose: 4.0 mg/kg/injection, schedule: Q01DX001 (ip), vehicle: water): 161 % of control and 162 % of control and 202 % of control
- T/C (dose: 4.0 mg/kg/injection, schedule: Q01DX009 (ip), vehicle: water): 172 % of control
- T/C (dose: 6.0 mg/kg/injection, schedule: Q01DX009 (ip), vehicle: saline): 191 % of control and 202 % of control and 272 % of control
- T/C (dose: 6.0 mg/kg/injection, schedule: Q04DX003 (ip), vehicle: saline): 161 % of control and 193 % of control and 260 % of control
- T/C (dose: 8.0 mg/kg/injection, schedule: Q01DX001 (ip), vehicle: water): 186 % of control and 211 % of control and 275 % of control
- T/C (dose: 8.0 mg/kg/injection, schedule: Q01DX009 (ip), vehicle: water): 245 % of control
- T/C (dose: 12.0 mg/kg/injection, schedule: Q04DX003 (ip), vehicle: saline): 155 % of control and 215 % of control and 260 % of control
- T/C (dose: 16.0 mg/kg/injection, schedule: Q01DX001 (ip), vehicle: water): 178 % of control and 282 % of control and 287 % of control

SMILES: COc1ccc(S(=O)(=O)N=N/C=C2\C=CC=CN2O)cc1OC
- T/C [1]: 99 % of control
- T/C (dose: 12.5 mg/kg/injection, schedule: Q01DX009 (ip), vehicle: saline with Tween-80): 100 % of control
- T/C (dose: 25.0 mg/kg/injection, schedule: Q01DX009 (ip), vehicle: saline with Tween-80): 112 % of control
- T/C [6]: 112 % of control
- T/C [3]: 161 % of control

SMILES: O=C(COc1ccc(Cl)cc1)Nc1cccnc1
- T/C [7]: 90 % of control
- T/C [8]: 94 % of control

SMILES: N#CCCc1ccccc1
- T/C [9]: 100 % of control
- T/C [10]: 97 % of control
- T/C [11]: 100 % of control

SMILES: CCCC(C#N)(c1ccccc1)c1ccccc1
- T/C [8]: 90 % of control
- T/C [4]: 90 % of control
- T/C [5]: 93 % of control

SMILES: C#CCOCC(O)CN (centres undefined)
- T/C [12]: 104 % of control
- T/C (dose: 200.0 mg/kg/injection, schedule: Q04DX003 (ip), vehicle: saline): 100 % of control
- T/C (dose: 400.0 mg/kg/injection, schedule: Q04DX003 (ip), vehicle: saline): 102 % of control

SMILES: O=NN1CCNC1=O
- T/C (dose: 1.5 mg/kg/injection, schedule: Q01DX009 (ip), vehicle: Klucel (hydroxypropylcellulose) (HPC)): 98 % of control
- T/C (dose: 3.0 mg/kg/injection, schedule: Q01DX009 (ip), vehicle: Klucel (hydroxypropylcellulose) (HPC)): 110 % of control
- T/C (dose: 6.0 mg/kg/injection, schedule: Q01DX009 (ip), vehicle: Klucel (hydroxypropylcellulose) (HPC)): 101 % of control

SMILES: O=C(Nc1ccc(C2=NCCCN2)cc1)c1ccc(C(=O)Nc2ccc(C3=NCCCN3)cc2)nc1
- T/C (dose: 5.0 mg/kg/injection, schedule: Q01DX009 (ip), vehicle: saline with Tween-80): 87 % of control
- T/C (dose: 10.0 mg/kg/injection, schedule: Q01DX009 (ip), vehicle: saline with Tween-80): 95 % of control

SMILES: CC1(C)N=C(N)N=C(N)N1c1cccc(C#N)c1
- T/C (dose: 25.0 mg/kg/injection, schedule: Q01DX005 (ip), vehicle: saline): 95 % of control
- T/C (dose: 50.0 mg/kg/injection, schedule: Q01DX005 (ip), vehicle: saline): 100 % of control
- T/C (dose: 50.0 mg/kg/injection, schedule: Q04DX003 (ip), vehicle: saline): 115 % of control
- T/C (dose: 100.0 mg/kg/injection, schedule: Q01DX005 (ip), vehicle: saline): 104 % of control
- T/C [12]: 93 % of control

SMILES: Cc1c2cccc(Sc3ccccc3)c2c2c3c(cccc13)[S+](c1ccccc1)C2 (centres undefined)
- T/C (dose: 0.78 mg/kg/injection, schedule: Q01DX009 (ip), vehicle: saline with Tween-80): 104 % of control
- T/C (dose: 1.56 mg/kg/injection, schedule: Q01DX009 (ip), vehicle: saline with Tween-80): 105 % of control
- T/C (dose: 3.13 mg/kg/injection, schedule: Q01DX009 (ip), vehicle: saline with Tween-80): 102 % of control
- T/C [1]: 91 % of control and 100 % of control

SMILES: CCN(CC)CCOC(=O)C(c1ccccc1)C1CCCCC1 (centres undefined)
- T/C [10]: 99 % of control
- T/C [11]: 108 % of control
- T/C [13]: 108 % of control
- T/C (dose: 50.0 mg/kg/injection, schedule: Q01DX009 (ip), vehicle: saline): 118 % of control
- T/C (dose: 100.0 mg/kg/injection, schedule: Q01DX009 (ip), vehicle: saline): 110 % of control

SMILES: [Br][Pt].[NH-]CC[N-]CC[NH-]
- T/C [9]: 108 % of control
- T/C [10]: 90 % of control
- T/C [11]: 91 % of control
- T/C [13]: 91 % of control

SMILES: CC1CN=C(c2ccc(NC(=O)c3ccc(C(=O)Nc4ccc(C5=NCC(C)N5)cc4)cc3)cc2)N1 (centres undefined)
- T/C (dose: 12.5 mg/kg/injection, schedule: Q01DX009 (ip), vehicle: Klucel (hydroxypropylcellulose) (HPC)): 118 % of control
- T/C [7]: 107 % of control

SMILES: Cc1ccc(C(=O)CCCCl)c(C)c1
- T/C [6]: 100 % of control
- T/C [2]: 101 % of control
- T/C [3]: 108 % of control

SMILES: CCCCC(=O)OC1CC2CCC1(C)C2(C)C (centres undefined)
- T/C [4]: 90 % of control
